For orientation: pIC50 means the IC50 on a negative log10 scale, so that one unit is a factor of ten.

pIC50: −log10 of the molar value. Read-outs that look alike come from different tables or passages of the source. Ends that are not written are not given here.

The subject of one assay is human platelets. It counts as cell-based. Here is the method:
The cytoplasmic free Ca^2+ concentration ([Ca^2+ ]i) was measured using the fluorescent Ca^2 + indicator fura-2 (Molecular Probes, Inc., Eugene, Oreg.). Gel filtered platelets in Hepes-Tyrode's buffer were loaded with fura-2 by incubation at 37° C. with 1 μM fura-2/acetoxymethyl ester for 45 min according to the method of Rasmussen et al., J. Biol. Chem. 268, 14322 (1993). The labeled platelets were then re-gel filtered to remove any excess probe. Aliquots of the labeled platelet suspension were transferred into a quartz cuvette with a magnetic stirrer, which was then placed in a thermostatically controlled chamber at 37° C. in a fluorescence spectrophotometer (Dual Wave Length Shimazdu SP5000 Spectrofluorometer, Shimazdu USA, Pittsburgh, Pa.). Reagents were directly added to the cuvette. The excitation wave lengths varied between 340 and 380 nm. The fluorescence was measured by recording emitted light at 510 nm as reported by Fisher et al, Mol. Pharm. 35, 195 (1989). The minimum emission was determined on a 20 mM digitonin, 10 mM EGTA solubilized platelet sample; maximum emission was determined on the same sample with 10 mM Ca^2+ added. The intraplatelet free Ca^2+ concentration was calculated by the method of Grykiewicz et al., J. Biol. Chem. 260, 3440 (1985). The ratio of the fluorescence readings was calculated as R=340/380 nm and processed according to the equation [Ca^2+ ]i =KD ((R-Rmin)/Rmax -R))(Sf2 /Sb2) to determine the intraplatelet free Ca^2+ concentration. The KD for fura-2 was assumed to be 224 nM. Rmax and Rmin are the maximum and minimum fluorescence ratios measured at the end of the experiment, respectively; Sf2 and Sb2 are the fluorescence values at 380 nm in the absence and presence of saturating [Ca^2+ ], respectively.

For the next assay, the system named is platelets. It counts as cell-based, human. Conditions: washed platelets, α-thrombin 1 nM. The method, then:
Fresh whole blood was collected and mixed with 0.013 M sodium citrate and platelet-rich plasma was prepared according to the method of Meloni et al., J. Biol. Chem. 266, 6786, 1991. Washed platelets were prepared by gel filtration over Sepharose 2B columns in Hepes-Tyrode's buffer (0.137 M NaCl, 3 mM KCl, 0.4 mM Na H2 PO4, 12 mM NaHCO3, 1 mM MgCl2, 14.7 mM Hepes containing 20 mM glucose and 0.2% bovine serum albumin, pH 7.35). Platelets for aggregation and secretion studies were incubated according to the method of Schmaier et al., Blood 56, 1013, 1980 with 5-[^14 C]hydroxytryptamine for 30 min at 37° C. The washed platelets (2×10^8 /ml, final concentration radiolabeled with 5-[^14 C]hydroxytryptamine) were added to a cuvette of an aggregometer (Chronolog Corp., Havertown, Pa.), standardized using the protocol of Meloni et al., supra. After the addition of ZnCl2, final concentration 50 μM, purified HK (1 μM) or various concentrations of the peptides (0.1 to 3 mM) or buffer alone was added to the cuvette. Once the baseline stabilized, α-thrombin [0.125 U/ml (1 nM) final concentration] was then added to initiate platelet activation. Stirred platelets were allowed to incubate with o-thrombin and additions for 1 min. In other experiments, platelets were stimulated with TRAP (0.625 to 2.5 μM), ADP (1-5 μM)(Sigma), collagen (1.25 μg/ml) (Horm, Munich, Germany), or U-46619 (1 μM)(Calbiochem Behring, San Diego, Calif.). Additional experiments were performed with washed platelets stimulated with γ-thrombin (1 nM) in the presence of human fibrinogen (100 mg/dl). Both γ-thrombin and human fibrinogen were purchased from Enzyme Research Laboratories, South Bend, Ind. At the conclusion of the incubation, the entire platelet sample was centrifuged at 10,900 xg (Model E, Beckman Instruments, Palo Alto, Calif.) over a 0.135 mM formaldehyde, 5 mM EDTA solution (1 part of formaldehyde-EDTA to 4 parts of platelet suspension) and stored on ice until an aliquot of the supernatant was assayed for 5-[^14 C]hydroxytryptamine secretion. Percent secretion was determined by the ratio of the loss of 5-[^14 C]hydroxytryptamine in the supernatant of the agonist-treated specimen to the loss of 5-[^14 C]hydroxytryptamine in the supernatant of the platelet lysate after the value of the control supernatant (i.e., the level of 5-[^14 C]hydroxytryptamine in a unstimulated sample) was subtracted from both.

With RPPGFSPFR [BK, bradykinin], the “inhibition of α-thrombin-induced calcium mobilization” value in the assay with human platelets (FIG. 2, concentration not given) was “block”. Also, the pIC50 in the assay with human platelets (gel filtered platelets, read-out: IC50, α-thrombin-induced Ca2+ mobilization) is 3.64; with platelets (read-out: IC50 AGGREGATION (inhibition of α-thrombin-induced platelet aggregation)), 3.60; in the assay with platelets (read-out: IC50 SECRETION (inhibition of α-thrombin-induced platelet secretion)), 3.00.
